In US8252522B2, “Species detection methods and systems” (The Regents of the University of California, priority 2007, dated 2012):

Tests used:
[1] = system: bacterial spores vs vegetative bacteria; settings: microfluidic device, detection about few seconds after mixing
Method: (§1) A solution of a benzothiazole dye, THIA, was used (FIG. 1a), in a continuous-flow microfluidic device for detection of bacterial species, as described for a terbium (III) different emission assay.
(§2) For the steady-state experiments the dye is mixed with the samples and allowed to incubate for five minutes. In the microfluidic device, however, the dye is mixed with the bacterial sample and carried to the area for emission detection in about few seconds after the mixing.

[2] = system: bacterial spores; settings: steady-state, incubated for five minutes
Method: as §1, §2

[3] = system: different bacteria (E. coli and two bacilli)
Method: Kinetics of fluorescence enhancement of 64 μM THIA in the presence of different bacteria (10^6 cell/mL) in TRIS buffer, pH=8.5 (λex=420 nm, λem=470 nm). The time constants, τ, are inversely proportional to the rate constants, k=1/τ. The biexponential data fits assume pseudo-first-order processes. At about 50 s into the data acquisition, the bacteria are injected and into a stirred solution of the dye.
To simplify the kinetic analysis, the assays can be conducted under two types of extreme conditions that will assure that the first step, k1, can be approximated to pseudo-first-order process: (1) the dye is in excess to the binding sites on the bacterial surface; or (2) the binding sites on the bacterial surface are in excess to the dye. Under such conditions, the kinetics of fluorescence enhancement should manifest bi- (or multi-) exponential rises:
[formula] where FM is the maximum fluorescence intensity (the saturation level on the curves); dt is the injection time; Fi are the pre-exponential coefficients; and ti are the time constants for the various processes: τi=1/ki. […]
The samples are illuminated at a region where the staining dye absorbs and the emission is monitored (the fluorescence intensity is recorded every second) at the wavelength maximum of the fluorescence spectrum of the dye (FIG. 2). […] This plateau emission maximum is what is measured with the regular staining procedures. […]

[4] = system: bacterial spores; settings: within the duration of the mixing

## CCN1/C(=C/c2sc3ccccc3[n+]2CC)Sc2ccccc21.[I-] [THIA, 3,3′-Diethylthiacyanine iodide]
[1]
  signal from bacterial spores relative to signal from vegetative bacteria: about 13 times
[2]
  increase in emission intensity in the presence of bacterial spores: about an order of magnitude increase
[3]; all three species
  response to staining: positive response
[3]; vegetative bacteria
  duration of the emission intensity increase after initial mixing: continues to increase for several minutes
[4]
  time of emission enhancement by bacterial spores: within a second or less
